Measured values reported in patent EP4660182A1, “NAV1.7- AND/OR NAV1.8-INHIBITING ARYL PYRIDINE COMPOUNDS, PROCESSES FOR THE PREPARATION THEREOF, COMPOSITIONS, USES, METHODS FOR TREATMENT USING SAME, AND KITS” (Eurofarma Laboratórios S.A., priority 2023, dated 2024).
pIC50: −log10 of the molar value.

Assays:
[1] = biological target: T1, human sodium channels Nav 1.8 (Homo sapiens, UniProt Q9Y5Y9); experiment: Automated whole-cell voltage-clamp (ScreenPatch 384P) sodium current block, Nav 1.8; type: cell-based; conditions: CHO cells stably expressing human Nav 1.8; inactivation step -40 mV 8 s, test step 10 mV (TP1A); eight concentrations; exposure at least five minutes; room temperature; read-out: Nav1.8 IC50
T1 construct: expressed in transfected cells
Experimental: (§1) Biological assays were performed on Chinese hamster ovary (CHO) cells that express human sodium channels Nav 1.8 or Nav 1.7 in a stable manner.
(§2) The experimental protocol voltage-clamp using the whole cell configuration was established on the automated ScreenPatch® 384P platform (SP384PE, Nanion Technologies, Livingston, NJ) and the results were recorded with a Nanion 384-well Patch Clamp chip (NPC) (Nanion Technologies, Livingston, NJ).
(§3) Formula I compounds were diluted in eight concentrations in the extracellular solution composed of saline solution, buffered with HEPES (mM): NaCl, 137; KCl, 4; CaCl2, 3,8; MgCl2, 1; HEPES, 10; Glucose, 10; pH 7.4. The […], 50; CsF, 90; MgCl2, 5; EGTA, 5; HEPES, 10; pH 7.2. The duration of exposure of each compound with cells expressing Nav 1.7 or Nav 1.8 was at least five minutes and the assays were performed at room temperature.
(§4) The measurements of the sodium currents of Nav 1.8 and Nav 1.7 were obtained using the voltage protocol described below.
(§5) A holding voltage of -100 mV was established followed by an inactivation voltage step at -40 mV for 8 seconds, followed by a step of -100 mV for 20 ms, followed by a 20 ms step for 10 mV for Nav 1.8 or 0 mV for Nav 1.7 (TP1A) before returning to the holding voltage of -100 mV.
(§6) The protocol was repeated at a frequency of 0.05 Hz and the amplitude of the current was quantified throughout the recording of the TP1A phase. The variation in the amplitude of the peak current was evaluated according to the formula described below, after exposing the cells expressing the channels to each concentration of the different compounds: % Block = (1−(ITP1A,molecule/ITP1A,basal)×100%, [formula] wherein ITP1A,basal and ITP1A,molecule represent the peaks of sodium current input into TP1A before exposure to the compound and in the presence of the compound, respectively.
(§7) Data were obtained by nonlinear regression (nonlinear least squares) with XLfit for Excel (Microsoft, Redmond, WA).
(§8) The compounds were tested in at least one assay to obtain the value of CI50. For compounds that were tested in two or more assays, the results are described as the means of the CI50 values.

[2] = biological target: T2, human sodium channels Nav 1.7 (Homo sapiens, UniProt Q15858); experiment: Automated whole-cell voltage-clamp (ScreenPatch 384P) sodium current block, Nav 1.7; type: cell-based; conditions: CHO cells stably expressing human Nav 1.7; inactivation step -40 mV 8 s, test step 0 mV (TP1A); eight concentrations; exposure at least five minutes; room temperature; read-out: Nav1.7 IC50
T2 construct: expressed in transfected cells
Experimental: as §1, §2, §3, §4, §5, §6, §7, §8

T2 sequence (Q15858 whole entry): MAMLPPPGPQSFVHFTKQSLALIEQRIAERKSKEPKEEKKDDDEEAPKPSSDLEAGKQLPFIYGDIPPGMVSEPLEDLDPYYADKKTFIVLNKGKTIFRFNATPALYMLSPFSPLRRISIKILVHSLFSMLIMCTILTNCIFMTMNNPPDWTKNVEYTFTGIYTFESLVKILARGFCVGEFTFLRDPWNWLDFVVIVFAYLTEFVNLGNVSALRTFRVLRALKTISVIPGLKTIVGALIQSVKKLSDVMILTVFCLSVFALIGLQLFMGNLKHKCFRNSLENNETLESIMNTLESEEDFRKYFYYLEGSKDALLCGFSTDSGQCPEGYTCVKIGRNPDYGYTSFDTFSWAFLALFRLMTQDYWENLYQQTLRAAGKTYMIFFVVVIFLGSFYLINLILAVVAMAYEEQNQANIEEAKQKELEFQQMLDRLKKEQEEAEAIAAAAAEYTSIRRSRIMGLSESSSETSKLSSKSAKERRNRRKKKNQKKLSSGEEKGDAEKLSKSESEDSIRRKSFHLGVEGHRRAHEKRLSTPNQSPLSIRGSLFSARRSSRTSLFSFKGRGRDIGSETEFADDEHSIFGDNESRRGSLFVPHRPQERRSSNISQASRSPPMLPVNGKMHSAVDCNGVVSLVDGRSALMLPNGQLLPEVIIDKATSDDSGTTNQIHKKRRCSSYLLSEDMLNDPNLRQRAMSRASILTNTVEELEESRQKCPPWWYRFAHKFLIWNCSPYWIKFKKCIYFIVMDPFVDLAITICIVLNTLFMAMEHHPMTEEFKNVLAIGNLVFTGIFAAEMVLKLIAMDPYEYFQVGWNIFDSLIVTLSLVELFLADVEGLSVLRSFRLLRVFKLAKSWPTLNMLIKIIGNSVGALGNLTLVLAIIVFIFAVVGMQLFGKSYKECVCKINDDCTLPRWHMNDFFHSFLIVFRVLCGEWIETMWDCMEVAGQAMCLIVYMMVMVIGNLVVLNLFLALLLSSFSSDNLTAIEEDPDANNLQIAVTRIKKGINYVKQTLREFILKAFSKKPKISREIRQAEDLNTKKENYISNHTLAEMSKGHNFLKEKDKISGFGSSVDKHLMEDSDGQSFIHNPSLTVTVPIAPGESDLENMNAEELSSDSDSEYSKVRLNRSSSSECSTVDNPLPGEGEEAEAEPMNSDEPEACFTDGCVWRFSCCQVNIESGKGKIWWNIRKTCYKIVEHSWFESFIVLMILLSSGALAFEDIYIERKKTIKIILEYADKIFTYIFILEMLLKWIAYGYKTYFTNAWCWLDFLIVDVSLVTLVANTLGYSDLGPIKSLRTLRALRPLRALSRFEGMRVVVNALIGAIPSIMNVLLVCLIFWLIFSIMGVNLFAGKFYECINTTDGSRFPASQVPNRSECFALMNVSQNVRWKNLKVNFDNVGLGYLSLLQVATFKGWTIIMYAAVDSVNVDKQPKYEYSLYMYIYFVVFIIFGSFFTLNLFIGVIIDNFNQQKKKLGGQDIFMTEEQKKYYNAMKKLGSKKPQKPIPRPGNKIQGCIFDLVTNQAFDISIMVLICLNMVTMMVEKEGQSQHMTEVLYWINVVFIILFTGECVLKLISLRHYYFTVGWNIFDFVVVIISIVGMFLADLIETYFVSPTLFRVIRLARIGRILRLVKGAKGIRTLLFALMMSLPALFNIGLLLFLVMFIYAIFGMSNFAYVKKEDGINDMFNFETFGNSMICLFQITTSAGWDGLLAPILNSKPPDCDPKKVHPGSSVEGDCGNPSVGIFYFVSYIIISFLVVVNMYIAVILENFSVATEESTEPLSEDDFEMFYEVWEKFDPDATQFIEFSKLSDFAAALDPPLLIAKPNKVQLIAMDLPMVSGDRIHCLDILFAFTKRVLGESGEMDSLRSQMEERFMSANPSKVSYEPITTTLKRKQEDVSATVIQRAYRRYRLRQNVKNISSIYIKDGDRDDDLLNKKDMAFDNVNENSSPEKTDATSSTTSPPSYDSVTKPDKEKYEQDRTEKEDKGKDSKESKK
T1 sequence (Q9Y5Y9 whole entry): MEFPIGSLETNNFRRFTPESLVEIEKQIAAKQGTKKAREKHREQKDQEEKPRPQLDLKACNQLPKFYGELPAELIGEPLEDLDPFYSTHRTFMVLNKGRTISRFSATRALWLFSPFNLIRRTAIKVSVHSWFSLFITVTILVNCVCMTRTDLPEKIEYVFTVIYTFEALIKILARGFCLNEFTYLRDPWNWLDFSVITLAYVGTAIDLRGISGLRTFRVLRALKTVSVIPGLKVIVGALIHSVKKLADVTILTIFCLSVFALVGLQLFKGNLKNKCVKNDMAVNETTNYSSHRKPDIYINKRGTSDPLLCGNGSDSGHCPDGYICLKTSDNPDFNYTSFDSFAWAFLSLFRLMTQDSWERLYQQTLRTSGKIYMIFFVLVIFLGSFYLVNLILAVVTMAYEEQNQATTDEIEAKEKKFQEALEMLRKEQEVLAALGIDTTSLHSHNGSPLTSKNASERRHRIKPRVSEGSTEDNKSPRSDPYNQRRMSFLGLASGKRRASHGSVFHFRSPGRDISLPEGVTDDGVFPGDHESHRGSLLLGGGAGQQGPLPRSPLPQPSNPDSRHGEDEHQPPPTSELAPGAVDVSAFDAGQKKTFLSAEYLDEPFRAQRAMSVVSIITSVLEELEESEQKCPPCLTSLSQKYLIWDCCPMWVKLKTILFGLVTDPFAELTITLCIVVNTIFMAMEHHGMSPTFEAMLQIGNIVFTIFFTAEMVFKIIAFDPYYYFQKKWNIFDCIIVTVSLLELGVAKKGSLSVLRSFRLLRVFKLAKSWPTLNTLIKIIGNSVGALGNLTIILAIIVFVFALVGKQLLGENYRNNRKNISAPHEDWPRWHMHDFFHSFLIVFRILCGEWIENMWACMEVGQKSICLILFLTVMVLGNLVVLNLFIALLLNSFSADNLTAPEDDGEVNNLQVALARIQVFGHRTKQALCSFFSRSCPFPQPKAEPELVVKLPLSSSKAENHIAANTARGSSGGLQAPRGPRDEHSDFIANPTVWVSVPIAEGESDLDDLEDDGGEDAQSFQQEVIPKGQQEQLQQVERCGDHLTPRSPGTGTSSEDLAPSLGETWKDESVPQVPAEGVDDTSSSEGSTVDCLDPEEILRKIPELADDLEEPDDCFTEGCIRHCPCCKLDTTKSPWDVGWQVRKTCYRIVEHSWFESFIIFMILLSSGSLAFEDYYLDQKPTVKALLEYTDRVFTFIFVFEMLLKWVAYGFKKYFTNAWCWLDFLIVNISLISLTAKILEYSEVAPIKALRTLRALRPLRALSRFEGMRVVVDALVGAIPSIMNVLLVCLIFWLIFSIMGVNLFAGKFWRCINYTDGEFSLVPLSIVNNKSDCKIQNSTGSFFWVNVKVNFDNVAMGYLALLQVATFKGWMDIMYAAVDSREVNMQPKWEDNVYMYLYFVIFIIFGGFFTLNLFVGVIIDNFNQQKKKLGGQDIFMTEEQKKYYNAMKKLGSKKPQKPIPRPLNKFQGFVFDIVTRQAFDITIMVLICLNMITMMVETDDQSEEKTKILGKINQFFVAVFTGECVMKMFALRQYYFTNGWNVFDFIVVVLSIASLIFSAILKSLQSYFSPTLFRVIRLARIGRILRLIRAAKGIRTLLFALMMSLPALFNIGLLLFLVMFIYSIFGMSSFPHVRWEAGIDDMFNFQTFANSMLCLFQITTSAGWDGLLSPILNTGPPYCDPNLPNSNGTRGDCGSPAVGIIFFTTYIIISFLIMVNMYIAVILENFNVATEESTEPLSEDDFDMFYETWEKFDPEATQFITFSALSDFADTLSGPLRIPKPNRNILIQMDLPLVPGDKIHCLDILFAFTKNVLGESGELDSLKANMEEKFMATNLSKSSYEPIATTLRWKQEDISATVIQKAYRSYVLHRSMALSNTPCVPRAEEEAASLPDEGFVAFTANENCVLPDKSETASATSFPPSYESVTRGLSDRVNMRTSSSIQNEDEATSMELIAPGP

| Compound | pIC50 [1] | pIC50 [2] |
| --- | --- | --- |
| COc1ccc(F)c(/C=N/NC(=O)c2cncc(-c3ccc(OC(F)(F)F)nc3)n2)c1 [Compound 83, (E)-N'-(2-fluoro-5-methoxybenzylidene)-6-(6-(trifluoromethoxy)pyridine-3-yl)pyrazine-2-carbohydrazide] | > 6.30 | < 6.00 |
| CN(C)c1ccc(F)c(/C=N/NC(=O)c2cncc(-c3ccc(OC(F)(F)F)nc3)n2)c1 [Compound 93, (E)-N'-(5-(dimethylamino)-2-fluorobenzylidene)-6-(6-(trifluoromethoxy)pyridine-3-yl) pyrazine-2-carbohydrazide] | > 6.30 | < 6.00 |
| CCOc1ccc(-c2cncc(C(=O)N/N=C/c3cc(OC)ncc3F)n2)cn1 [Compound 8, (E)-6-(6-ethoxypyridine-3-yl)-N'-((5-fluoro-2-methoxypyridine-4-yl)methylene)pyrazine-2-carbohydrazide] | 6.00 to 6.30 | < 6.00 |
| COc1cnc(F)c(/C=N/NC(=O)c2nccc(-c3ccc(OC(F)F)nc3)n2)c1 [Compound 127, (E)-4-(6-(difluoromethoxy)pyridine-3-yl)-N'-((2-fluoro-5-methoxypyridine-3-yl)methylene)pyrimidine-2-carbohydrazide] | 6.00 to 6.30 | < 6.00 |
| [2H]C([2H])([2H])Oc1cnc(F)c(/C=N/NC(=O)c2cncc(-c3ccc(OC([2H])([2H])C)nc3)n2)c1 [Compound 172, (E)-6-(6-(ethoxy-1,1-d2)pyridine-3-yl)-N'-((2-fluoro-5-(methoxy-d3)pyridine-3-yl)methylene)pyrazine-2-carbohydrazide] | > 6.30 | < 6.00 |
| COc1ccc(F)c(/C=N/NC(=O)c2cncc(-c3ccc(OC4CNC4)nc3)n2)c1 [Compound 139, (E)-6-(6-(azetidin-3-yloxy)pyridine-3-yl)-N'-(2-fluoro-5-methoxybenzylidene) pyrazine-2-carbohydrazide] | < 6.00 | < 6.00 |
| COc1ccc(F)c(/C=N/NC(=O)c2cnc(O)c(-c3ccc(OC(F)(F)F)nc3)n2)c1 [Compound 98, (E)-N'-(2-fluoro-5-methoxybenzylidene)-5-hydroxy-6-(6-(trifluoromethoxy)pyridine-3-yl)pyrazine-2-carbohydrazide] | < 6.00 | < 6.00 |
| CCOc1ccc(-c2cncc(C(=O)N/N=C/c3cc(O)cnc3F)n2)cn1 [Compound 28, (E)-6-(6-ethoxypyridine-3-yl)-N'-((2-fluoro-5-hydroxypyridine-3-yl)methylene)pyrazine-2-carbohydrazide] | 6.00 to 6.30 | < 6.00 |
| CCOc1ccc(-c2cncc(C(=O)N/N=C/c3cc(OC)cc(O)c3F)n2)cn1 [Compound 44, (E)-6-(6-ethoxypyridine-3-yl)-N'-(2-fluoro-3-hydroxy-5-methoxybenzylidene) pyrazine-2-carbohydrazide] | < 6.00 | < 6.00 |
| O=C(N/N=C/c1ccccn1)c1cncc(-c2ccc(OC(F)(F)F)nc2)n1 [Compound 84, (E)-N'-(pyridine-2-ylmethylene)-6-(6-(trifluoromethoxy)pyridine-3-yl)pyrazine-2-carbohydrazide] | < 6.00 | < 6.00 |
| CC(O)c1cncc(/C=N/NC(=O)c2cncc(-c3ccc(OC(F)F)nc3)n2)c1 (centres unmarked) [Compound 111, (E)-6-(6-(difluoromethoxy)pyridine-3-yl)-N'-((5-(1-hydroxyethyl)pyridine-3-yl)methylene)pyrazine-2-carbohydrazide] | < 6.00 | < 6.00 |
| O=C(N/N=C/c1cc(OC2CC2)ccc1F)c1cncc(-c2ccc(OC3CC3)nc2)n1 [Compound 82, (E)-N'-(5-cyclopropoxy-2-fluorobenzylidene)-6-(6-cyclopropoxypyridine-3-yl)pyrazine-2-carbohydrazide] | > 6.30 | > 6.30 |
| CC(O)c1cnc(F)c(/C=N/NC(=O)c2cncc(-c3ccc(OC(F)F)nc3)n2)c1 (centres unmarked) [Compound 112, (E)-6-(6-(difluoromethoxy)pyridine-3-yl)-N'-((2-fluoro-5-(1-hydroxyethyl)pyridine-3-yl)methylene)pyrazine-2-carbohydrazide] | 6.00 to 6.30 | < 6.00 |
